Measurements published in US9513294B2, “Megastokes amino-triazolyl-BODIPY compounds and applications to live neuron staining and human serum albumin FA1 drug site probing” (National University of Singapore, priority 2012, dated 2016).

assay: Absorbance and fluorescence emission spectra (SpectraMax M2); format: physicochemical; conditions: BDCAC library, Table 3
Method: BDC-8 (Blue): absorbance λmax=473 nm, emission λmax=585 nm; MK101-8 (Green): absorbance λmax=474 nm, emission λmax=563 nm; MKHA374-48 (Yellow): absorbance λmax=468 nm, λem=557 nm. The corresponding spectra of a reported BODIPY (BD-27; Red) are also included for comparison: absorbance λmax=551 nm, emission λmax=568 nm. The structures of BDC-8, MK101-8, MKHA374-48 and BD-27 are also depicted.
(§1) ^1H-NMR, ^19F-NMR and ^13C-NMR spectra were recorded on Bruker ACF300 (300 MHz), DPX300 (300 MHz) and AMX500 (500 MHz) spectrometers. High resolution mass spectra (ESI) were obtained on a Finnigan/MAT 95XL-T spectrometer. Spectroscopic and quantum yield data were measured on a SpectraMax M2 spectrophotometer (Molecular Devices). Data analysis was performed using GraphPrism 5.0. Analytical characterization was performed on a HPLC-MS (Agilent-1200 series) with a DAD detector and a single quadrupole mass spectrometer (6130 series) with an ESI probe. Analytical HPLC method: eluents, A: H2O (0.1% HCOOH), B: CH3CN (0.1% HCOOH), gradient 5% B to 95% B (10 min). Reverse-phase Phenomenex C18 Luna column (4.6×50 mm^2, 3.5 […]), flow rate: 1 mL/min.

| Compound | λmax Absorp. | λmax Emission |
| --- | --- | --- |
| CC(=O)Nc1ccc(C2=C3C=CC(N4CCCCC4)=[N+]3[B-](F)(F)n3c2ccc3-n2cc(CN(C)C)nn2)cc1 [BDCAC-2] | 466 nm | 591 nm |
| CCCC(C)c1cn(-c2ccc3n2[B-](F)(F)[N+]2=C(N4CCCCC4)C=CC2=C3c2ccc(NC(C)=O)cc2)nn1 (stereo not drawn) [BDCAC-3] | 467 nm | 585 nm |
| CC(=O)Nc1ccc(C2=C3C=CC(N4CCCCC4)=[N+]3[B-](F)(F)n3c2ccc3-n2cc(C3CC3)nn2)cc1 [BDCAC-4] | 467 nm | 578 nm |
| CC(=O)Nc1ccc(C2=C3C=CC(N4CCCCC4)=[N+]3[B-](F)(F)n3c2ccc3-n2cc(C3CCCC3)nn2)cc1 [BDCAC-5] | 469 nm | 588 nm |
| CC(=O)Nc1ccc(C2=C3C=CC(N4CCCCC4)=[N+]3[B-](F)(F)n3c2ccc3-n2cc(C3CCCCC3)nn2)cc1 [BDCAC-6] | 467 nm | 560 nm |
| CC(=O)Nc1ccc(C2=C3C=CC(N4CCCCC4)=[N+]3[B-](F)(F)n3c2ccc3-n2cc(CC3CCCC3)nn2)cc1 [BDCAC-7] | 467 nm | 585 nm |
| CC(=O)Nc1ccc(C2=C3C=CC(N4CCCCC4)=[N+]3[B-](F)(F)n3c2ccc3-n2cc(CC3CCCCC3)nn2)cc1 [BDCAC-8] | 468 nm | 585 nm |
| CC(=O)Nc1ccc(C2=C3C=CC(N4CCCCC4)=[N+]3[B-](F)(F)n3c2ccc3-n2cc(-c3ccccc3)nn2)cc1 [BDCAC-9] | 465 nm | 579 nm |
| CC(=O)Nc1ccc(C2=C3C=CC(N4CCCCC4)=[N+]3[B-](F)(F)n3c2ccc3-n2cc(-c3ccc(C)cc3)nn2)cc1 [BDCAC-10] | 464 nm | 556 nm |
| CC(=O)Nc1ccc(C2=C3C=CC(N4CCCCC4)=[N+]3[B-](F)(F)n3c2ccc3-n2cc(-c3ccc(C(C)(C)C)cc3)nn2)cc1 [BDCAC-11] | 465 nm | 582 nm |
| CCCCc1ccc(-c2cn(-c3ccc4n3[B-](F)(F)[N+]3=C(N5CCCCC5)C=CC3=C4c3ccc(NC(C)=O)cc3)nn2)cc1 [BDCAC-12] | 464 nm | 558 nm |
| CC(=O)Nc1ccc(C2=C3C=CC(N4CCCCC4)=[N+]3[B-](F)(F)n3c2ccc3-n2cc(-c3ccc(N(C)C)cc3)nn2)cc1 [BDCAC-13] | 467 nm | 619 nm |
| COc1cc(OC)cc(-c2cn(-c3ccc4n3[B-](F)(F)[N+]3=C(N5CCCCC5)C=CC3=C4c3ccc(NC(C)=O)cc3)nn2)c1 [BDCAC-14] | 464 nm | 588 nm |
| CC(=O)Nc1ccc(C2=C3C=CC(N4CCCCC4)=[N+]3[B-](F)(F)n3c2ccc3-n2cc(-c3ccc(OC(F)(F)F)cc3)nn2)cc1 [BDCAC-15] | 463 nm | 537 nm |
| CC(=O)Nc1ccc(C2=C3C=CC(N4CCCCC4)=[N+]3[B-](F)(F)n3c2ccc3-n2cc(-c3ccc(F)c(F)c3)nn2)cc1 [BDCAC-16] | 462 nm | 586 nm |
| CC(=O)Nc1ccc(C2=C3C=CC(N4CCCCC4)=[N+]3[B-](F)(F)n3c2ccc3-n2cc(COc3ccccc3)nn2)cc1 [BDCAC-17] | 465 nm | 584 nm |
| CC(=O)Nc1ccc(C2=C3C=CC(N4CCCCC4)=[N+]3[B-](F)(F)n3c2ccc3-n2cc(CN(C)Cc3ccccc3)nn2)cc1 [BDCAC-18] | 465 nm | 588 nm |
| CC(=O)Nc1ccc(C2=C3C=CC(N4CCCCC4)=[N+]3[B-](F)(F)n3c2ccc3-n2cc(CCc3ccccc3)nn2)cc1 [BDCAC-19] | 467 nm | 580 nm |
| COc1ccc2cc(-c3cn(-c4ccc5n4[B-](F)(F)[N+]4=C(N6CCCCC6)C=CC4=C5c4ccc(NC(C)=O)cc4)nn3)ccc2c1 [BDCAC-22] | 465 nm | 585 nm |

assay: Quantum yield measurements versus Acridine Yellow in EtOH; format: physicochemical; conditions: BDCAC library, Table 3; excitation 460 nm
Method: as §1
Quantum yields were calculated by measuring the integrated emission area of the fluorescent spectra and comparing to the area measured for Acridine Yellow in EtOH when excited at 460 nm (Φfluorescence^AcridineYellow=0.47). Quantum yields for the amino-triazolyl-BODIPYs were calculated using the equation below, where F represents the area of fluorescent emission, η is the refractive index of the solvent, and Abs is absorbance at the excitation wavelength selected for standards and samples. Emission was integrated between 510 and 700 nm.

| Compound | φ (quantum yield) |
| --- | --- |
| CC(=O)Nc1ccc(C2=C3C=CC(N4CCCCC4)=[N+]3[B-](F)(F)n3c2ccc3-n2cc(CN(C)C)nn2)cc1 [BDCAC-2] | 0.8% |
| CCCC(C)c1cn(-c2ccc3n2[B-](F)(F)[N+]2=C(N4CCCCC4)C=CC2=C3c2ccc(NC(C)=O)cc2)nn1 (stereo not drawn) [BDCAC-3] | 1.5% |
| CC(=O)Nc1ccc(C2=C3C=CC(N4CCCCC4)=[N+]3[B-](F)(F)n3c2ccc3-n2cc(C3CC3)nn2)cc1 [BDCAC-4] | 1.5% |
| CC(=O)Nc1ccc(C2=C3C=CC(N4CCCCC4)=[N+]3[B-](F)(F)n3c2ccc3-n2cc(C3CCCC3)nn2)cc1 [BDCAC-5] | 1.3% |
| CC(=O)Nc1ccc(C2=C3C=CC(N4CCCCC4)=[N+]3[B-](F)(F)n3c2ccc3-n2cc(C3CCCCC3)nn2)cc1 [BDCAC-6] | 2.4% |
| CC(=O)Nc1ccc(C2=C3C=CC(N4CCCCC4)=[N+]3[B-](F)(F)n3c2ccc3-n2cc(CC3CCCC3)nn2)cc1 [BDCAC-7] | 1.3% |
| CC(=O)Nc1ccc(C2=C3C=CC(N4CCCCC4)=[N+]3[B-](F)(F)n3c2ccc3-n2cc(CC3CCCCC3)nn2)cc1 [BDCAC-8] | 0.9% |
| CC(=O)Nc1ccc(C2=C3C=CC(N4CCCCC4)=[N+]3[B-](F)(F)n3c2ccc3-n2cc(-c3ccccc3)nn2)cc1 [BDCAC-9] | 1.1% |
| CC(=O)Nc1ccc(C2=C3C=CC(N4CCCCC4)=[N+]3[B-](F)(F)n3c2ccc3-n2cc(-c3ccc(C)cc3)nn2)cc1 [BDCAC-10] | 2.4% |
| CC(=O)Nc1ccc(C2=C3C=CC(N4CCCCC4)=[N+]3[B-](F)(F)n3c2ccc3-n2cc(-c3ccc(C(C)(C)C)cc3)nn2)cc1 [BDCAC-11] | 1.4% |
| CCCCc1ccc(-c2cn(-c3ccc4n3[B-](F)(F)[N+]3=C(N5CCCCC5)C=CC3=C4c3ccc(NC(C)=O)cc3)nn2)cc1 [BDCAC-12] | 1.6% |
| CC(=O)Nc1ccc(C2=C3C=CC(N4CCCCC4)=[N+]3[B-](F)(F)n3c2ccc3-n2cc(-c3ccc(N(C)C)cc3)nn2)cc1 [BDCAC-13] | 0.1% |
| COc1cc(OC)cc(-c2cn(-c3ccc4n3[B-](F)(F)[N+]3=C(N5CCCCC5)C=CC3=C4c3ccc(NC(C)=O)cc3)nn2)c1 [BDCAC-14] | 1.0% |
| CC(=O)Nc1ccc(C2=C3C=CC(N4CCCCC4)=[N+]3[B-](F)(F)n3c2ccc3-n2cc(-c3ccc(OC(F)(F)F)cc3)nn2)cc1 [BDCAC-15] | 2.7% |
| CC(=O)Nc1ccc(C2=C3C=CC(N4CCCCC4)=[N+]3[B-](F)(F)n3c2ccc3-n2cc(-c3ccc(F)c(F)c3)nn2)cc1 [BDCAC-16] | 0.7% |
| CC(=O)Nc1ccc(C2=C3C=CC(N4CCCCC4)=[N+]3[B-](F)(F)n3c2ccc3-n2cc(COc3ccccc3)nn2)cc1 [BDCAC-17] | 0.8% |
| CC(=O)Nc1ccc(C2=C3C=CC(N4CCCCC4)=[N+]3[B-](F)(F)n3c2ccc3-n2cc(CN(C)Cc3ccccc3)nn2)cc1 [BDCAC-18] | 0.8% |
| CC(=O)Nc1ccc(C2=C3C=CC(N4CCCCC4)=[N+]3[B-](F)(F)n3c2ccc3-n2cc(CCc3ccccc3)nn2)cc1 [BDCAC-19] | 0.9% |
| COc1ccc2cc(-c3cn(-c4ccc5n4[B-](F)(F)[N+]4=C(N6CCCCC6)C=CC4=C5c4ccc(NC(C)=O)cc4)nn3)ccc2c1 [BDCAC-22] | 1.2% |
